Data: patent publication US5164513A, “Imidazole derivative” (SS Pharmaceutical Co., Ltd., priority 1987, dated 1992)
Converted amounts (≈) assume the structure as drawn.

Assays:
Type in all cases: cell-based
[1] = test system: Streptococcus faecalis IFO 12964; assay: Antimicrobial activity (MIC); details: Enterococcus faecalis, IFO12964
[2] = test system: Trichophyton rubrum NHL J; assay: Antimicrobial activity (MIC)
[3] = test system: Microsporum gypseum IFO 8231; assay: Antimicrobial activity (MIC); details: Nannizzia gypsea, IFO8231
[4] = test system: Trichophyton mentagrophytes QM 248; assay: Antimicrobial activity (MIC); details: QM248
[5] = test system: Microsporum cookei IFO 8303; assay: Antimicrobial activity (MIC); details: Paraphyton cookei, IFO8303
[6] = test system: Sarcina lutea ATCC 9341; assay: Antimicrobial activity (MIC); details: Micrococcus luteus, ATCC9341
[7] = test system: Staphylococcus aureus FDA 209P; assay: Antimicrobial activity (MIC); details: FDA209P
[8] = test system: Epidermophyton floccosum IFO 9045; assay: Antimicrobial activity (MIC); details: IFO9045
[9] = test system: Saccharomyces cerevisiae ATCC 9763; assay: Antimicrobial activity (MIC); details: ATCC9763
[10] = test system: Penicillium chrysogenum ATCC 6010; assay: Antimicrobial activity (MIC); details: ATCC6010
[11] = test system: Candida albicans Yu-1200; assay: Antimicrobial activity (MIC); details: YU1200
[12] = test system: Trichophyton tonsurans IFO 5928; assay: Antimicrobial activity (MIC); details: IFO5928
[13] = test system: Fusarium moniliforme IAM 5062; assay: Antimicrobial activity (MIC); details: Fusarium verticillioides, IAM5062
[14] = test system: Cladosporium fulvum IAM 5006; assay: Antimicrobial activity (MIC); details: Fulvia fulva, IAM5006
[15] = test system: Aspergillus niger ATCC 9642; assay: Antimicrobial activity (MIC); details: ATCC9642
[16] = test system: Aspergillus oryzae IMF 4014; assay: Antimicrobial activity (MIC); details: IMF4014
[17] = test system: Staphylococcus epidermidis ATCC 12228; assay: Antimicrobial activity (MIC); details: ATCC12228
[18] = test system: Staphylococcus aureus Smith; assay: Antimicrobial activity (MIC)
[19] = test system: Pyricularia oryzae IAM 5016; assay: microbe, parasite or virus in culture; details: IAM5016
[20] = test system: Candida albicans NHL 4019; assay: Antimicrobial activity (MIC); details: NHL4019
[21] = test system: Helminthosporium sesamum IAM 5012; assay: Antimicrobial activity (MIC); details: IAM5012
[22] = test system: Debaryomyces kloeckeri IFO 0015; assay: Antimicrobial activity (MIC); details: IFO0015
[23] = test system: Staphylococcus aureus Terajima; assay: Antimicrobial activity (MIC)
[24] = test system: Gibberella fujikuroi IAM 8046; assay: Antimicrobial activity (MIC); details: Fusarium fujikuroi, IAM8046
[25] = test system: Saccharomyces ruxii 6507; assay: Antimicrobial activity (MIC)
[26] = test system: Microsporum audounii IFO 6074; assay: Antimicrobial activity (MIC); details: IFO6074
[27] = test system: Bacillus subtilis ATCC 6633; assay: Antimicrobial activity (MIC); details: ATCC6633
[28] = test system: Trichophyton mentagrophytes IFO 5812; assay: Antimicrobial activity (MIC); details: IFO5812
[29] = test system: Micrococcus lysodeikticus IFO 3333; assay: Antimicrobial activity (MIC); details: Micrococcus luteus, IFO3333

**Q.** What does the source list for `CCCCCCCCOc1ccccc1C(C)(O)Cn1ccnc1` (stereo not shown) [Compound 8]?
**A.** MIC [1]: 6.25 µg/mL (≈ 18.9 µM); MIC [2]: < 0.006 µg/mL; MIC [3]: 0.006 µg/mL (≈ 0.0182 µM); MIC [4]: 0.006 µg/mL (≈ 0.0182 µM); MIC [5]: 0.012 µg/mL (≈ 0.0363 µM); MIC [6]: 0.2 µg/mL (≈ 0.605 µM); MIC [7]: 3.12 µg/mL (≈ 9.44 µM); MIC [8]: 0.1 µg/mL (≈ 0.303 µM); MIC [9]: 0.025 µg/mL (≈ 0.0756 µM); MIC [10]: 3.12 µg/mL (≈ 9.44 µM); MIC [11]: 12.5 µg/mL (≈ 37.8 µM); MIC [12]: < 0.006 µg/mL; MIC [13]: 3.12 µg/mL (≈ 9.44 µM); MIC [14]: 0.78 µg/mL (≈ 2.36 µM); MIC [15]: 0.025 µg/mL (≈ 0.0756 µM); MIC [16]: < 0.006 µg/mL; MIC [17]: 0.39 µg/mL (≈ 1.18 µM); MIC [18]: 3.12 µg/mL (≈ 9.44 µM); MIC [19]: < 0.006 µg/mL; MIC [20]: 12.5 µg/mL (≈ 37.8 µM); MIC [21]: < 0.006 µg/mL; MIC [22]: 3.12 µg/mL (≈ 9.44 µM); MIC [23]: 3.12 µg/mL (≈ 9.44 µM); MIC [24]: 0.78 µg/mL (≈ 2.36 µM); MIC [25]: 0.39 µg/mL (≈ 1.18 µM); MIC [26]: < 0.006 µg/mL; MIC [27]: 3.12 µg/mL (≈ 9.44 µM); MIC [28]: < 0.006 µg/mL; MIC [29]: 1.56 µg/mL (≈ 4.72 µM)

**Q.** What does the source list for `CCCCCCCCCOc1ccccc1C(C)(O)Cn1ccnc1` (stereo not shown) [Compound 59]?
**A.** MIC [1]: 6.25 µg/mL (≈ 18.1 µM); MIC [2]: < 0.006 µg/mL; MIC [3]: < 0.006 µg/mL; MIC [4]: < 0.006 µg/mL; MIC [5]: 0.1 µg/mL (≈ 0.29 µM); MIC [6]: 0.05 µg/mL (≈ 0.145 µM); MIC [7]: 6.25 µg/mL (≈ 18.1 µM); MIC [8]: 0.2 µg/mL (≈ 0.581 µM); MIC [9]: 12.5 µg/mL (≈ 36.3 µM); MIC [10]: 6.25 µg/mL (≈ 18.1 µM); MIC [11]: 25 µg/mL (≈ 72.6 µM); MIC [12]: < 0.006 µg/mL; MIC [13]: 6.25 µg/mL (≈ 18.1 µM); MIC [14]: 1.56 µg/mL (≈ 4.53 µM); MIC [15]: 0.1 µg/mL (≈ 0.29 µM); MIC [16]: < 0.006 µg/mL; MIC [17]: 1.56 µg/mL (≈ 4.53 µM); MIC [18]: 6.25 µg/mL (≈ 18.1 µM); MIC [19]: < 0.006 µg/mL; MIC [20]: 12.5 µg/mL (≈ 36.3 µM); MIC [21]: < 0.006 µg/mL; MIC [22]: 12.5 µg/mL (≈ 36.3 µM); MIC [23]: 6.25 µg/mL (≈ 18.1 µM); MIC [24]: 1.56 µg/mL (≈ 4.53 µM); MIC [25]: 0.78 µg/mL (≈ 2.26 µM); MIC [26]: < 0.006 µg/mL; MIC [27]: 6.25 µg/mL (≈ 18.1 µM); MIC [28]: < 0.006 µg/mL; MIC [29]: 1.56 µg/mL (≈ 4.53 µM)
